According to patent publication US20240034743A9, “TRICYCLIC COMPOUNDS AS EGFR INHIBITORS” (QILU PHARMACEUTICAL CO., LTD., priority 2020, published 2024):
Like-named read-outs stand apart in the source and are kept apart here.

Legend:
EGFR WT (wild type EGFR) = EGFR WT (wild type EGFR) (Homo sapiens (Human), UniProt P00533); assay: In vitro enzymatic TR-FRET (HTRF KinEASE-TK) kinase assay, EGFR WT; format: biochemical; conditions: kinase activity, TR-FRET; read-out: EGFR (WT) IC50
Outline: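 Recombinant enzyme preincubated with compound 10 min at room temperature in kinase buffer with 5 mM MgCl2, 1 mM MnCl2, 1 mM DTT. Biotinylated TK substrate plus ATP then added for 40 min. HTRF detection (Sa-XL665, Cryptate antibody) for 1 h; IC50 from 665/615 nm ratio.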

A431 cells (EGFR WT) = assay: A431 cell proliferation inhibition assay (CellTiter-Glo); format: cell-based; conditions: Homo sapiens
Outline: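 Seeded cells grown 24 h, then exposed 72 h (37° C, 5% CO2) to graded compound dilutions at 0.1% DMSO final. Viability read by CellTiter-Glo luminescence after 30 min at room temperature; IC50 fitted from the dose curve.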

[1] = test system: Ba/F3_Del19/T790M/C797S cells; assay: Ba/F3_Del19/T790M/C797S cell proliferation inhibition assay (CellTiter-Glo); format: cell-based; conditions: Mus musculus
Outline: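 Ba/F3 cells carrying EGFR Del19/T790M/C797S were seeded at 700 cells/well and exposed to serially diluted compound (0.1% DMSO final) for 72 h at 37° C. Viability was read by CellTiter-Glo luminescence to give IC50.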

[2] = test system: Ba/F3_L858R/T790M/C797S cells; assay: Ba/F3_L858R/T790M/C797S cell proliferation inhibition assay (CellTiter-Glo); format: cell-based; conditions: Mus musculus
Outline: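 Ba/F3 cells engineered to carry EGFR L858R/T790M/C797S, seeded at 700 cells/well, exposed to serially diluted compound (0.1% DMSO final) for 72 h at 37 °C, 5% CO2. Viability read by CellTiter-Glo luminescence after 30 min at room temperature; IC50 from dose-response fit.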

EGFR L858R/T790M/C797S = EGFR L858R/T790M/C797S (Homo sapiens (Human), UniProt P00533, C797S/L858R/T790M); assay: In vitro enzymatic TR-FRET (HTRF KinEASE-TK) kinase assay, EGFR L858R/T790M/C797S; format: biochemical; conditions: kinase activity
EGFR L858R/T790M/C797S, sequence (P00533 25-1210 T790M/C797S/L858R): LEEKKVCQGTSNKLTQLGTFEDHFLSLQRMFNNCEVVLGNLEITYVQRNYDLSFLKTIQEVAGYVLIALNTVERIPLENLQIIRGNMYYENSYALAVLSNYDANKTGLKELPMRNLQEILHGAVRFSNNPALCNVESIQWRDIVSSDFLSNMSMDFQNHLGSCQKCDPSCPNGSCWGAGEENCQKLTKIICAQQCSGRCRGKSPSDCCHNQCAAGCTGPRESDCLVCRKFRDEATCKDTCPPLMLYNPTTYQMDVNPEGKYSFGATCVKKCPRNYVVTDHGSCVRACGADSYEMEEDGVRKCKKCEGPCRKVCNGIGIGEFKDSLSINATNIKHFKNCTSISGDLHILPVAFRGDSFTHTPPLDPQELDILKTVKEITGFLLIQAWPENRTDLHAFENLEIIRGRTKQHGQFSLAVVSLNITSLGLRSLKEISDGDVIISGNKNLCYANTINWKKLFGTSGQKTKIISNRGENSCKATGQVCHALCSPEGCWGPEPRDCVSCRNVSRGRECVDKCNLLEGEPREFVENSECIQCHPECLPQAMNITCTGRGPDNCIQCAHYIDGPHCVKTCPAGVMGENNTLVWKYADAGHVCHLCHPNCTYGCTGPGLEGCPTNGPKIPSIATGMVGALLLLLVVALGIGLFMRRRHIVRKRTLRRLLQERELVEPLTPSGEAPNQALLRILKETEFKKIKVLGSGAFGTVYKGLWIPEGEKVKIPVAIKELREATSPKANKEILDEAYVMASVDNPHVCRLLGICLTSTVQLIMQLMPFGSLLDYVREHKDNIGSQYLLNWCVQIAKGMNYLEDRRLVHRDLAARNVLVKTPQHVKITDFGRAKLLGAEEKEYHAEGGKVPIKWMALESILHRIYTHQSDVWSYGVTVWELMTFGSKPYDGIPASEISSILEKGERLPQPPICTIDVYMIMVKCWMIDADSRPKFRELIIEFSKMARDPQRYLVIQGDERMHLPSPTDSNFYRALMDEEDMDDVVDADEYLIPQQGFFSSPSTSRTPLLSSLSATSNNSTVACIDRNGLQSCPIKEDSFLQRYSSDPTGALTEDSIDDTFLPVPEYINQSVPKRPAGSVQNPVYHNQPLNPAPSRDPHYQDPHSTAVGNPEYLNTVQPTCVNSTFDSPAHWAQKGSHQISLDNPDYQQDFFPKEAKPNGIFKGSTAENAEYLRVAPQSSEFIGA
Method: (I) In Vitro Enzymatic Experiment for EGFR WT and EGFR L858R/T790M/C797S
In the assay, the inhibition effect of the compound on the kinase activity of EGFR WT (wild type EGFR) and EGFR L858R/T790M/C797S was tested by adopting a time-resolved fluorescence resonance energy transfer (TR-FRET) method, and half maximal inhibitory concentration IC50 of the compound on the kinase activity of EGFR was obtained.
EGFR recombinase and EGFR L858R/T790M/C797S recombinase, purchased from Signalchem.
HTRF KinEASE-TK kit, purchased from Cisbio.
DTT, MnCl2, and MgCl2, purchased from Sigma.
ATP, purchased from Promega.
Brigatinib, purchased from Selleck.
1) 1× working solution was prepared: 5 mM MgCl2; 1 mM DTT; 1 mM MnCl2 and 1× kinase buffer (in kit).
2) […] of gradiently-diluted compound was transferred to a 384-well plate using Echo 550 (Labcyte).
3) 5 μL of 2× EGFR WT or EGFR L858R/T790M/C797S recombinase solution was added to the 384-well plate, and the plate was incubated at room temperature for 10 min.
4) 5 μL of 2× TK-substrate-biotin substrate solution (containing ATP) was added to the 384-well plate, and the plate was incubated at room temperature for 40 min.
5) 5 μL of assay solution containing Sa-XL 665 HTRF and 5 μL of TK-antibody-Cryptatewas were added to the plate, and the plate was incubated at room temperature for 1 h.
6) The fluorescence signal values at 615 nm and 665 nm were measured for each well using an Envision microplate reader (PerkinElmer).
7) The ratio of fluorescence signal values at 665 nm and 615 nm was calculated for each well.
8) Data analysis was performed using GraphPad Prism software to give the IC50 for compounds.

[3] = A-431, cell proliferation, 72 h, CellTiter-Glo, read-out: A431 EGFR WT IC50
[4] = BaF3, cell proliferation, 72 h, CellTiter-Glo, read-out: Ba/F3 (Del19/T790M/C797S) IC50
[5] = BaF3, cell proliferation, 72 h, CellTiter-Glo, read-out: Ba/F3 (L858R/T790M/C797S) IC50
[6] = A-431, 72 h, read-out: A431 EGFR WT IC50(nM)
[7] = BaF3, 72 h, read-out: Ba/F3 (Del19/T790M/C797S) IC50(nM)
[8] = BaF3, 72 h, read-out: Ba/F3 (L858R/T790M/C797S) IC50(nM)

EGFR WT (wild type EGFR), sequence (P00533 25-1210): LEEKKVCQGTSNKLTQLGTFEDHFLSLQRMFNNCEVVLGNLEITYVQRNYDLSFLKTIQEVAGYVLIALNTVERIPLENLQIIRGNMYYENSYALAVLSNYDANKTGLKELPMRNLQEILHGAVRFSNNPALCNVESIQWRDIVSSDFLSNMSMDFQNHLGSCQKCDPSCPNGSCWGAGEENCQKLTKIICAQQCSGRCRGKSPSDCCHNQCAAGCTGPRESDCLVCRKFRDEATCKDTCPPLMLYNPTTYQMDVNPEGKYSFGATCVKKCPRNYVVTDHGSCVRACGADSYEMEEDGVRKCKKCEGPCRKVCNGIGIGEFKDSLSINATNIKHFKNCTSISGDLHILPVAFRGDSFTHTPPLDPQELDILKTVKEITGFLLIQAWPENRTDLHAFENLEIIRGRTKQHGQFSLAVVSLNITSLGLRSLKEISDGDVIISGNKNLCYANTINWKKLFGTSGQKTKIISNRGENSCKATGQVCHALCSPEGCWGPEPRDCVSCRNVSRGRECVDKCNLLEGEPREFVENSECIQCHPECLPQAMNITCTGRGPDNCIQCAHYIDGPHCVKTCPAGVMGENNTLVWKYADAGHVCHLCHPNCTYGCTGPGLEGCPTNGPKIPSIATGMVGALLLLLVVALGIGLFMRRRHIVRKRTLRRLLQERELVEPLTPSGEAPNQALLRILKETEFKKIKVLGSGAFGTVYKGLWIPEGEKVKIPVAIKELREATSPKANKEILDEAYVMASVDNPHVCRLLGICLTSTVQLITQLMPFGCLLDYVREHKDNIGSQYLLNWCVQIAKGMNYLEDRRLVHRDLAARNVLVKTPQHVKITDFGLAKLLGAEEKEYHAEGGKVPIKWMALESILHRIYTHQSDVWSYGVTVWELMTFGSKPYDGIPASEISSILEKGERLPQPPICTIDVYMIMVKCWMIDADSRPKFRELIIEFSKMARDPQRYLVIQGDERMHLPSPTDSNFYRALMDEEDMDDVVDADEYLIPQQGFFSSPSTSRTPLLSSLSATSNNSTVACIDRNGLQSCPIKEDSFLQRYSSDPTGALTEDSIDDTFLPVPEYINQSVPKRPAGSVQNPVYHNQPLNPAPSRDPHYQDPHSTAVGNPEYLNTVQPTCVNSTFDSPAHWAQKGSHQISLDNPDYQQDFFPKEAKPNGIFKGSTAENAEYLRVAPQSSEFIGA

Row | Structure (SMILES) | IC50 (EGFR WT (wild type EGFR)) [nM] | IC50 (A431 cells (EGFR WT); [3]) [nM] | IC50 [1, 4] [nM] | IC50 [2, 5] [nM] | IC50 (EGFR L858R/T790M/C797S) [nM] | IC50 (A431 cells (EGFR WT); [6]) [nM] | IC50 [1, 7] [nM] | IC50 [2, 8] [nM]
1 | COc1cc2c(cc1Nc1ncc(Br)c(Nc3ccccc3P(C)(C)=O)n1)-c1cnn(C)c1CCN2 [Compound 28] | 1 to 10 |  |  |  |  | 100 to 1000 | < 10 | < 10
2 | COc1cc2c(cc1Nc1ncc(Br)c(Nc3ccc4nccnc4c3P(C)(C)=O)n1)-c1cnn(C)c1CCN2CC1CC1 [Compound 12] | 1 to 10 | 100 to 1000 | < 10 | < 10 |  |  |  | 
3 | COc1cc2c(cc1Nc1ncc(Br)c(Nc3ccc4nccnc4c3NS(C)(=O)=O)n1)-c1cnn(C)c1CCN2C#N [Compound 113] | 1 to 10 | 100 to 1000 | < 10 | 10 to 50 |  |  |  | 
4 | CCN1CCc2c(cnn2C)-c2cc(Nc3ncc(Br)c(Nc4ccccc4P(C)(C)=O)n3)c(OC)cc21 [Compound 20] | 1 to 10 | 100 to 1000 | < 10 | < 10 |  |  |  | 
5 | COc1cc2c(cc1Nc1ncc(C)c(Nc3ccccc3P(C)(C)=O)n1)-c1cnn(C)c1CCN2C(C)C [Compound 94] | 1 to 10 | 100 to 1000 | 10 to 50 | 10 to 50 |  |  |  | 
6 | COc1cc2c(cc1Nc1ncc(Br)c(Nc3ccccc3P(C)(C)=O)n1)-c1cnn(C)c1CCN2C1CCN(C)CC1F (stereo not drawn) [Compound 65] | 1 to 10 | 100 to 1000 | < 10 | 10 to 50 |  |  |  | 
7 | COc1cc2c(cc1Nc1ncc(Br)c(Nc3ccncc3P(C)(C)=O)n1)-c1cnn(C)c1CCN2C(C)C [Compound 97] | 1 to 10 | 100 to 1000 | < 10 | 10 to 50 |  |  |  | 
8 | COc1cc2c(cc1Nc1ncc(Br)c(Nc3ccccc3P(C)(C)=O)n1)-c1cn(CCN(C)C)nc1CCN2C(C)C [Compound 56] | 1 to 10 |  |  |  |  | 100 to 1000 | < 10 | 10 to 50
9 | COc1cc2c(cc1Nc1ncc(Br)c(Nc3ccccc3P(C)(C)=O)n1)-c1cnn(C)c1CCN2C1CCOCC1 [Compound 87] | 1 to 10 | 100 to 1000 | < 10 | < 10 |  |  |  | 
10 | COc1cc2c(cc1Nc1ncc(Br)c(Nc3ccc4nccnc4c3C(N)=O)n1)-c1cnn(C)c1CCN2C(C)C [Compound 115] |  | > 1000 | < 10 | 10 to 50 | 1 to 10 |  |  | 

Now from value to compound, other results behind:

Row | IC50 (EGFR WT (wild type EGFR)) [nM] | IC50 (A431 cells (EGFR WT); [3]) [nM] | IC50 [1, 4] [nM] | IC50 [2, 5] [nM] | IC50 (EGFR L858R/T790M/C797S) [nM] | Structure (SMILES) | IC50 (A431 cells (EGFR WT); [6]) [nM] | IC50 [1, 7] [nM] | IC50 [2, 8] [nM]
11 | 1 to 10 | 100 to 1000 | < 10 | 10 to 50 |  | COc1cc2c(cc1Nc1ncc(Br)c(Nc3cccnc3P(C)(C)=O)n1)-c1cnn(C)c1CCN2C [Compound 44] |  |  | 
12 | 1 to 10 | 50 to 100 | < 10 | < 10 |  | COc1cc2c(cc1Nc1ncc(Br)c(Nc3ccc(F)cc3P(C)(C)=O)n1)-c1cnn(C)c1CCN2C [Compound 43] |  |  | 
13 | 1 to 10 | 100 to 1000 | < 10 | < 10 |  | COc1cc2c(cc1Nc1ncc(Br)c(Nc3ccccc3N(C)S(C)(=O)=O)n1)-c1cnn(C)c1CCN2C [Compound 4] |  |  | 
14 | 10 to 50 | 100 to 1000 | < 10 | < 10 |  | COc1cc2c(cc1Nc1ncc(C(F)(F)F)c(Nc3ccccc3P(C)(C)=O)n1)-c1cnn(C)c1CCN2C [Compound 26] |  |  | 
15 | 1 to 10 | 50 to 100 | < 10 | < 10 |  | COc1cc2c(cc1Nc1ncc(Br)c(Nc3ccccc3P(C)(C)=O)n1)-c1cnn(C)c1CCN2C [Compound 2] |  |  | 
